Earlier results in patent EP1997479A1, “Stabilized amorphous candesartan cilexetil compositions for oral administration” (Helm AG, priority 2007, dated 2008).

solubility in water: low solubility in water
SMILES: CCOc1nc2cccc(C(=O)OC(C)OC(=O)OC3CCCCC3)c2n1Cc1ccc(-c2ccccc2-c2nnn[nH]2)cc1 (racemic) [Candesartan cilexetil, (±)-1-(Cyclohexyloxycarbonyloxy)ethyl 2-ethoxy-1-[[2'-(1H-tetrazol-5-yl)biphenyl-4-yl]methyl]-1 H-benzimidazole-7-carboxylate]
